According to patent publication US20090163698A1, “Method for Preparing Antibody Conjugates” (priority 2007, published 2009):

Tests used:
A375.S2 cells = assay: Binding and internalization study at 37° C., confocal microscopy; type: cell-based, human; details: 37° C. for 10 min, washed, incubated 1 hour at 37° C.
Procedure: A375.S2 cells were harvested by scraping and then resuspended to obtain individualized cells and rejuvenated for 1 hour, at 37° C. About 1 million cells of each tumor type were counted and distributed into individual centrifugation tubes. The tubes were spun to obtain a cell pellet.
For binding and internalization, the cells were treated with the targeted liposome formulation at 37° C. for 10 min with mild shaking (140 rpm). Cells were treated with the liposome formulations containing either a doxorubicin payload or a fluorescent marker (Dextran Alexa Fluor 488). Treatment was terminated by adding 1 mL of washing media (serum free), vortexing briefly, and centrifuging to recover a cell pellet The cells in the pellet were resuspend in washing media, vigorously shaken for 10 minutes at 37° C. and then centrifuged again (440 rpm). The cell pellet was left in 100 μL of media, an aliquot of 8 μL was taken and placed on a glass slide for observation under a confocal microscope.
Binding and internalization of the targeted liposomes to A375.S2 cells was evaluated after various incubation times of the cells and the liposome formulation.

murine αVβ3/5 integrin = details: cited from earlier work
Chain of murine αVβ3/5 integrin (P43406 31-885 limits assumed): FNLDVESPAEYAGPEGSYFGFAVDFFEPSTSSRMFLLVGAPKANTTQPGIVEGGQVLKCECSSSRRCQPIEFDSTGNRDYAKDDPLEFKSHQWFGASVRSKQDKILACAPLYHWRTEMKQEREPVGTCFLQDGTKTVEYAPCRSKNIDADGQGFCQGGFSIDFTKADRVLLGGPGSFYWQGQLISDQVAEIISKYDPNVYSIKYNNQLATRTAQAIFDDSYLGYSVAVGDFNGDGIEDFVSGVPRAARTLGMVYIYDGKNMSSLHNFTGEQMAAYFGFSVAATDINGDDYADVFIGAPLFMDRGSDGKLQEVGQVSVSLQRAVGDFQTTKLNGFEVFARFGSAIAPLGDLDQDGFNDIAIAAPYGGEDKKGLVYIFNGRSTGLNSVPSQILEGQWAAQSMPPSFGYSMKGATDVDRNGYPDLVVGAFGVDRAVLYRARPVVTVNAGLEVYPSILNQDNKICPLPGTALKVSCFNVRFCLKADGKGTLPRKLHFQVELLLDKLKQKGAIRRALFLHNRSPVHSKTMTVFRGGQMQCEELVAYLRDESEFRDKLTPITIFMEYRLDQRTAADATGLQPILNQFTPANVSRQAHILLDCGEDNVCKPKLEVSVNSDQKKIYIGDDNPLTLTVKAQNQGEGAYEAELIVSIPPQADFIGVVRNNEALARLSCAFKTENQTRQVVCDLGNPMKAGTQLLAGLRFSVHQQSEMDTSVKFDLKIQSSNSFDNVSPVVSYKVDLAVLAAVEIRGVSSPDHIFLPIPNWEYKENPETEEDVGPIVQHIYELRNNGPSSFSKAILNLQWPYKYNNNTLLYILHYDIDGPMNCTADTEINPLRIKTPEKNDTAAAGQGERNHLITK
Chain of murine αVβ3/5 integrin (P43406 887-1044 limits assumed): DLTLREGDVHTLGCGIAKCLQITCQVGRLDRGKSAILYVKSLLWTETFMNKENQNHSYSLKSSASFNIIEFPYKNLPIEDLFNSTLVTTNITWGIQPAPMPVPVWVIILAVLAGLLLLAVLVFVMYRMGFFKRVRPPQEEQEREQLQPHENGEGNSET

| Molecule | Binding and internalization (confocal microscopy) (A375.S2 cells) | Binding to murine αVβ3/5 integrin (murine αVβ3/5 integrin) |
| --- | --- | --- |
| COc1cccc2c1C(=O)c1c(O)c3c(c(O)c1C2=O)C[C@@](O)(C(=O)CO)C[C@@H]3O[C@H]1C[C@H](N)[C@H](O)[C@H](C)O1 [free dox, doxorubicin] | drug internalization is evident |  |
| CNTO95: full-length human anti-alpha-V antibody of the IgG1k type, SEQ ID NO: 1 and SEQ ID NO: 2 |  | does not bind |
